Measured values from ChEMBL document CHEMBL1148914, “Cadinane sesquiterpenes from the brown alga Dictyopteris divaricata” (J Nat Prod, 2004).

Assays:
Assay type in all cases: functional, cell-based
A549 = test: Cytotoxicity against human A549 cells by MTT assay
Bel-7402 = test: Cytotoxicity against human Bel7402 cells by MTT assay
BGC-823 = test: Cytotoxicity against human BGC823 cells by MTT assay
HCT-8 = test: Cytotoxicity against human HCT8 cells by MTT assay
MCF7 = test: Cytotoxicity against human MCF7 cells by MTT assay

Measured: IC50

C=C1CC[C@]2(O)[C@H]([C@H](C(C)(C)O)CC[C@H]2C)[C@H]1O
> 10 µg/mL: all assays above

CC(C)[C@@H]1CC[C@@H](C)[C@]2(O)CC[C@@](C)(O)[C@@H](O)[C@@H]12
> 10 µg/mL: all assays above

CC1=CC[C@@]2(O)[C@H](C)CC[C@@H](C(C)C)[C@@H]2C1=O
> 10 µg/mL: all assays above

CC(C)[C@@H]1CC[C@@H](C)[C@]2(O)CCC(C=O)=C[C@@H]12
> 10 µg/mL: all assays above

CC1=CC[C@]2(O)[C@@H]([C@@H]1O)[C@H](C(C)C)CC[C@H]2C
> 10 µg/mL: all assays above

CC1=CC[C@]2(O)[C@@H]([C@H]1O)[C@H](C(C)C)CC[C@H]2C
> 10 µg/mL: all assays above

C=C1CC[C@]2(O)[C@@H]([C@@H]1O)[C@H](C(C)C)CC[C@H]2C
> 10 µg/mL: all assays above
